Results: patent publication US12643871B2, “Aryl formamide compound containing chiral sulfur oxide or salt thereof, preparation method, herbicidal composition and use thereof” (Qingdao Kingagroot Chemical Compound Co., Ltd., priority 2019, dated 2026)

Experiments:
Assay in all cases: Weeding effect in post-emergence stage
Type in all cases: in vivo
Conditions in all cases: 250 g/ha; 2 leaf stage; 15 days after application; fresh weight control rate
Echinochloa crusgali = system: Echinochloa crusgali
Method in brief: (§1)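 Activity graded 0 (<5%) to 5 (>85%) from fresh-weight control rate, averaged over three repeats, 15 days after a spray-tower application. Plants at 2-leaf stage (2 weeks post-sowing) received 15–500 g/ha of compound formulated in acetone, Tween 80 and methyl oleate synergist (1.5 L/ha).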

Setaria viridis = system: Setaria viridis
Method in brief: as §1

Amaranthus retroflexus = system: Amaranthus retroflexus
Method in brief: as §1

Abutilon theophrasti = system: Abutilon theophrasti
Method in brief: as §1

Digitaria sanguinalis = system: Digitaria sanguinalis
Method in brief: as §1

SMILES | weeding effect in post-emergence stage, activity level (growth control rate), Echinochloa crusgali (Echinochloa crusgali) | weeding effect in post-emergence stage, activity level (growth control rate), Setaria viridis (Setaria viridis) | weeding effect in post-emergence stage, activity level (growth control rate), Amaranthus retroflexus (Amaranthus retroflexus) | weeding effect in post-emergence stage, activity level (growth control rate), Abutilon theophrasti (Abutilon theophrasti) | weeding effect in post-emergence stage, activity level (growth control rate), Digitaria sanguinalis (Digitaria sanguinalis)
CCCCCC[S@@+]([O-])c1c(C(F)(F)F)ccc(C(=O)Nc2nnc(C)o2)c1F [Compound 12] | 5 (Level 5: growth control rate is above 85%) | 3 (Level 3: growth control rate is greater than or equal to 40% and less than 60%) | 5 (Level 5: growth control rate is above 85%) | 5 (Level 5: growth control rate is above 85%) | 3 (Level 3: growth control rate is greater than or equal to 40% and less than 60%)
CC=CC[S+]([O-])c1c(C(F)(F)F)ccc(C(=O)Nc2nnc(C)o2)c1F (stereo not drawn) [Compound 21] | 5 (Level 5: growth control rate is above 85%) | 5 (Level 5: growth control rate is above 85%) | 5 (Level 5: growth control rate is above 85%) | 5 (Level 5: growth control rate is above 85%) | 5 (Level 5: growth control rate is above 85%)
C#CCC[S@@+]([O-])c1c(C(F)(F)F)ccc(C(=O)Nc2nnc(C)o2)c1F [Compound 24] | 5 (Level 5: growth control rate is above 85%) | 5 (Level 5: growth control rate is above 85%) | 5 (Level 5: growth control rate is above 85%) | 5 (Level 5: growth control rate is above 85%) | 5 (Level 5: growth control rate is above 85%)
CC#CC[S@@+]([O-])c1c(C(F)(F)F)ccc(C(=O)Nc2nnc(C)o2)c1F [Compound 25] | 5 (Level 5: growth control rate is above 85%) | 5 (Level 5: growth control rate is above 85%) | 5 (Level 5: growth control rate is above 85%) | 5 (Level 5: growth control rate is above 85%) | 5 (Level 5: growth control rate is above 85%)
Cc1nnc(NC(=O)c2ccc(C(F)(F)F)c([S@+]([O-])CC(C)F)c2F)o1 (stereo partly drawn) [Compound 27] | 5 (Level 5: growth control rate is above 85%) | 5 (Level 5: growth control rate is above 85%) | 5 (Level 5: growth control rate is above 85%) | 5 (Level 5: growth control rate is above 85%) | 5 (Level 5: growth control rate is above 85%)
Cc1nnc(NC(=O)c2ccc(C(F)(F)F)c([S@+]([O-])CCC(F)F)c2F)o1 [Compound 28] | 5 (Level 5: growth control rate is above 85%) | 5 (Level 5: growth control rate is above 85%) | 5 (Level 5: growth control rate is above 85%) | 5 (Level 5: growth control rate is above 85%) | 5 (Level 5: growth control rate is above 85%)
Cc1nnc(NC(=O)c2ccc(C(F)(F)F)c([S@+]([O-])CC(C)(F)F)c2F)o1 [Compound 29] | 5 (Level 5: growth control rate is above 85%) | 5 (Level 5: growth control rate is above 85%) | 5 (Level 5: growth control rate is above 85%) | 5 (Level 5: growth control rate is above 85%) | 5 (Level 5: growth control rate is above 85%)
Cc1nnc(NC(=O)c2ccc(C(F)(F)F)c([S@+]([O-])C(F)(F)F)c2F)o1 [Compound 30] | 5 (Level 5: growth control rate is above 85%) | 5 (Level 5: growth control rate is above 85%) | 5 (Level 5: growth control rate is above 85%) | 5 (Level 5: growth control rate is above 85%) | 5 (Level 5: growth control rate is above 85%)
Cc1nnc(NC(=O)c2ccc(C(F)(F)F)c([S@+]([O-])C(F)(F)C(F)(F)F)c2F)o1 [Compound 31] | 5 (Level 5: growth control rate is above 85%) | 5 (Level 5: growth control rate is above 85%) | 5 (Level 5: growth control rate is above 85%) | 5 (Level 5: growth control rate is above 85%) | 5 (Level 5: growth control rate is above 85%)
Cc1nnc(NC(=O)c2ccc(C(F)(F)F)c([S@+]([O-])C(F)(C(F)(F)F)C(F)(F)F)c2F)o1 [Compound 32] | 5 (Level 5: growth control rate is above 85%) | 5 (Level 5: growth control rate is above 85%) | 5 (Level 5: growth control rate is above 85%) | 5 (Level 5: growth control rate is above 85%) | 5 (Level 5: growth control rate is above 85%)
Cc1nnc(NC(=O)c2ccc(C(F)(F)F)c([S+]([O-])C(F)(F)C(F)(F)C(F)(F)F)c2F)o1 (stereo not drawn) [Compound 33] | 5 (Level 5: growth control rate is above 85%) | 5 (Level 5: growth control rate is above 85%) | 5 (Level 5: growth control rate is above 85%) | 5 (Level 5: growth control rate is above 85%) | 5 (Level 5: growth control rate is above 85%)
Cc1nnc(NC(=O)c2ccc(C(F)(F)F)c([S@+]([O-])CCCC(F)(F)F)c2F)o1 [Compound 34] | 5 (Level 5: growth control rate is above 85%) | 5 (Level 5: growth control rate is above 85%) | 5 (Level 5: growth control rate is above 85%) | 5 (Level 5: growth control rate is above 85%) | 5 (Level 5: growth control rate is above 85%)
Cc1nnc(NC(=O)c2ccc(C(F)(F)F)c([S@+]([O-])CCC(F)(F)C(F)(F)F)c2F)o1 [Compound 35] | 5 (Level 5: growth control rate is above 85%) | 5 (Level 5: growth control rate is above 85%) | 5 (Level 5: growth control rate is above 85%) | 5 (Level 5: growth control rate is above 85%) | 5 (Level 5: growth control rate is above 85%)
Cc1nnc(NC(=O)c2ccc(C(F)(F)F)c([S@+]([O-])CCC(F)(C(F)(F)F)C(F)(F)F)c2F)o1 [Compound 36] | 5 (Level 5: growth control rate is above 85%) | 5 (Level 5: growth control rate is above 85%) | 5 (Level 5: growth control rate is above 85%) | 5 (Level 5: growth control rate is above 85%) | 5 (Level 5: growth control rate is above 85%)
Cc1nnc(NC(=O)c2ccc(C(F)(F)F)c([S@+]([O-])CC(C)Cl)c2F)o1 (stereo partly drawn) [Compound 38] | 5 (Level 5: growth control rate is above 85%) | 5 (Level 5: growth control rate is above 85%) | 5 (Level 5: growth control rate is above 85%) | 5 (Level 5: growth control rate is above 85%) | 5 (Level 5: growth control rate is above 85%)
